Results from ChEMBL document CHEMBL1137749, “Antifungal unsaturated cyclic Mannich ketones and amino alcohols: study of mechanism of action” (2009).
Values after ≈ are worked out from the molar mass of the structure shown. Active and inactive are the calls of the source. The rule behind the calls is not given here.

Experiments:
Nakaseomyces glabratus = assay: Antifungal activity against Candida glabrata ATCC 3916 after 48 hrs by macro tube dilution method; assay type: functional; conditions: ATCC 3916, 48 h
Saccharomyces cerevisiae = assay: Antifungal activity against Saccharomyces cerevisiae after 48 hrs by macro tube dilution method; assay type: functional
Candida albicans [1] = assay: Antifungal activity against Candida albicans ATCC 90028 assessed as changes in fungal protein expression at 2 times MIC after 1 hr by electrophoresis-based microchip technology; assay type: functional, organism-based
Aspergillus sp. = assay: Antifungal activity against Aspergillus sp. after 48 hrs by macro tube dilution method; assay type: functional
Candida albicans [2] = assay: Antifungal activity against Candida albicans ATCC 90028 after 48 hrs by macro tube dilution method; assay type: functional; conditions: ATCC 90028, 48 h
Candida albicans [3] = assay: Antifungal activity against Candida albicans ATCC 90028 assessed as changes in fungal protein expression at 0.5 time MIC after 1 hr by electrophoresis-based microchip technology; assay type: functional, organism-based
Candida parapsilosis = assay: Antifungal activity against Candida parapsilosis ATCC 22019 after 48 hrs by macro tube dilution method; assay type: functional; conditions: Lodderomyces parapsilosis, ATCC 22019, 48 h
Pichia kudriavzevii = assay: Antifungal activity against Candida krusei ATCC 30068 after 48 hrs by macro tube dilution method; assay type: functional; conditions: ATCC 30068, 48 h
Candida albicans [4] = assay: Inhibition of chitin synthase in Candida albicans ATCC 90028 at 1.5 times MIC by liquid scintillation analyzer relative to nikkomycin
Candida albicans [5] = assay: Antifungal activity against Candida albicans ATCC 90028 assessed as inhibition of fungal ergosterol synthesis at 0.5 times MIC after 16 hrs by UV spectrophotometry; assay type: functional, organism-based
Rattus norvegicus = species on record: Rattus norvegicus; assay: Inhibition of lactate dehydrogenase in Wistar rat kidney at 1.5 times MIC relative to control

Row | SMILES | MIC (Nakaseomyces glabratus) [µg/mL] | MIC (Saccharomyces cerevisiae) [µg/mL] | Activity (Candida albicans [1]) | MIC (Aspergillus sp.) [µg/mL] | MIC (Candida albicans [2]) [µg/mL] | Activity (Candida albicans [3]) | MIC (Candida parapsilosis) [µg/mL] | MIC (Pichia kudriavzevii) [µg/mL] | inhibition (Candida albicans [4]) | Activity (Candida albicans [5]) | inhibition (Rattus norvegicus) | Activity (Candida albicans [4])
1 | COc1ccccc1/C=C1\CCC(CN2CCCCC2)C1=O (stereo not given) | 12.5 (≈ 41.7 µM) | 6.25 (≈ 20.9 µM) | inactive | 100 (≈ 334 µM) | 6.25 (≈ 20.9 µM) | inactive | 12.5 (≈ 41.7 µM) | 12.5 (≈ 41.7 µM) |  |  |  | 
2 | Cc1ccc(/C=C2\CCC(CN3CCOCC3)C2=O)cc1 (stereo not given) | 3.12 (≈ 11 µM) | 1.56 (≈ 5.47 µM) |  | 25 (≈ 87.6 µM) | 6.25 (≈ 21.9 µM) |  | 6.25 (≈ 21.9 µM) | 12.5 (≈ 43.8 µM) |  |  |  | 
3 | COc1cc(/C=C2\CCC(CN3CCCCC3)C2=O)cc(OC)c1OC (stereo not given) | 100 (≈ 278 µM) | 25 (≈ 69.5 µM) |  | 100 (≈ 278 µM) | 12.5 (≈ 34.8 µM) |  | 50 (≈ 139 µM) | 12.5 (≈ 34.8 µM) |  |  |  | 
4 | O=C1/C(=C/c2ccccc2)CCCCC1CN1CCOCC1 (stereo not given) | > 200 | 50 (≈ 167 µM) |  | 200 (≈ 668 µM) | 25 (≈ 83.5 µM) |  | 100 (≈ 334 µM) | 100 (≈ 334 µM) | 24% | inactive | inactive | 
5 | O=C1/C(=C/c2ccccc2)CCCCCC1CN1CCOCC1 (stereo not given) | > 200 | 200 (≈ 638 µM) |  | > 200 | > 200 |  | > 200 | > 200 | Active |  |  | 
6 | O=C1/C(=C/c2ccccc2)CCCC1CN1CCOCC1 (stereo not given) | > 200 | 3.12 (≈ 11 µM) |  | > 200 | 25 (≈ 87.6 µM) |  | 12.5 (≈ 43.8 µM) | 25 (≈ 87.6 µM) |  |  |  | 
7 | CC1CCN(C[C@H]2CCC/C(=C\c3ccccc3)[C@@H]2O)CC1 (relative stereo) | > 200 | 100 (≈ 334 µM) |  | > 200 | > 200 |  | > 200 | > 200 |  |  |  | 
8 | O=C1/C(=C/c2ccccc2)CCC1CN1CCNCC1 (stereo not given) | 12.5 (≈ 46.2 µM) | 1.56 (≈ 5.77 µM) | inactive | 100 (≈ 370 µM) | 6.25 (≈ 23.1 µM) | inactive | 6.25 (≈ 23.1 µM) | 12.5 (≈ 46.2 µM) | inactive |  |  | 
9 | COc1ccc(/C=C2\CCC(CN3CCOCC3)C2=O)cc1 (stereo not given) | 6.25 (≈ 20.7 µM) | 1.56 (≈ 5.18 µM) | inactive | 200 (≈ 664 µM) | 3.12 (≈ 10.4 µM) | inactive | 6.25 (≈ 20.7 µM) | 12.5 (≈ 41.5 µM) |  |  |  | 
10 | COc1ccc(/C=C2\CCCC(CN3CCOCC3)C2=O)cc1 (stereo not given) | > 200 | 12.5 (≈ 39.6 µM) |  | > 200 | 25 (≈ 79.3 µM) |  | 12.5 (≈ 39.6 µM) | 25 (≈ 79.3 µM) |  |  |  | 
11 | O=C1/C(=C/c2ccccc2)CCCC1CN1CCCC1 (stereo not given) | 25 (≈ 92.8 µM) | 12.5 (≈ 46.4 µM) |  | 100 (≈ 371 µM) | 25 (≈ 92.8 µM) |  | 12.5 (≈ 46.4 µM) | 25 (≈ 92.8 µM) |  |  |  | 
12 | CC1CCN(CC2CCC/C(=C\c3ccccc3)C2=O)CC1 (stereo not given) | 100 (≈ 336 µM) | 12.5 (≈ 42 µM) |  | 100 (≈ 336 µM) | 12.5 (≈ 42 µM) |  | 25 (≈ 84 µM) | 100 (≈ 336 µM) |  |  |  | 
13 | O[C@H]1/C(=C/c2ccccc2)CCCCC[C@H]1CN1CCOCC1 (relative stereo) | 200 (≈ 634 µM) | 100 (≈ 317 µM) |  | > 200 | 200 (≈ 634 µM) |  | 200 (≈ 634 µM) | 200 (≈ 634 µM) |  |  |  | Active
14 | O[C@H]1/C(=C/c2ccccc2)CCCC[C@H]1CN1CCCCC1 (relative stereo) | 200 (≈ 668 µM) | 50 (≈ 167 µM) |  | 200 (≈ 668 µM) | > 200 |  | > 200 | 200 (≈ 668 µM) |  |  |  | 
15 | COc1cccc(/C=C2\CCC(CN3CCCCC3)C2=O)c1 (stereo not given) | 12.5 (≈ 41.7 µM) | 6.25 (≈ 20.9 µM) |  | 100 (≈ 334 µM) | 12.5 (≈ 41.7 µM) |  | 6.25 (≈ 20.9 µM) | 12.5 (≈ 41.7 µM) |  |  |  | 
16 | O[C@H]1/C(=C/c2ccccc2)CCCCC[C@H]1CN1CCCCC1 (relative stereo) | 50 (≈ 159 µM) | 6.25 (≈ 19.9 µM) |  | 50 (≈ 159 µM) | 100 (≈ 319 µM) |  | 50 (≈ 159 µM) | 6.25 (≈ 19.9 µM) |  |  |  | inactive
17 | O[C@H]1/C(=C/c2ccccc2)CCC[C@@H]1CN1CCOCC1 (relative stereo) | > 200 | 200 (≈ 696 µM) |  | > 200 | 200 (≈ 696 µM) |  | > 200 | 200 (≈ 696 µM) |  |  |  | 
18 | O[C@H]1/C(=C/c2ccccc2)CCCC[C@@H]1CN1CCCCC1 (relative stereo) | 100 (≈ 334 µM) | 25 (≈ 83.5 µM) |  | > 200 | 50 (≈ 167 µM) |  | 100 (≈ 334 µM) | 100 (≈ 334 µM) |  |  |  | 
19 | O[C@H]1/C(=C/c2ccccc2)CCCC[C@H]1CN1CCOCC1 (relative stereo) | > 200 | > 200 |  | > 200 | > 200 |  | > 200 | > 200 |  |  |  | 
20 | O=C1/C(=C/c2ccccc2)CCC1CN1CCCC1 (stereo not given) | 12.5 (≈ 49 µM) | 3.12 (≈ 12.2 µM) | inactive | 50 (≈ 196 µM) | 6.25 (≈ 24.5 µM) | inactive | 6.25 (≈ 24.5 µM) | 6.25 (≈ 24.5 µM) |  |  |  | 
21 | O=C1/C(=C/c2ccccc2)CCCCCC1CN1CCCCC1 (stereo not given) | > 200 | 100 (≈ 321 µM) |  | 100 (≈ 321 µM) | 100 (≈ 321 µM) |  | 200 (≈ 642 µM) | 200 (≈ 642 µM) | 50% |  | 30% | 
22 | Cc1ccc(/C=C2\CCCC(CN3CCOCC3)C2=O)cc1 (stereo not given) | > 200 | 3.12 (≈ 10.4 µM) |  | > 200 | 100 (≈ 334 µM) |  | 25 (≈ 83.5 µM) | 200 (≈ 668 µM) |  |  |  | 
23 | O[C@H]1/C(=C/c2ccccc2)CCC[C@H]1CN1CCOCC1 (relative stereo) | > 200 | > 200 |  | > 200 | > 200 |  | > 200 | > 200 |  |  |  | 
24 | O=C1/C(=C/c2ccc3c(c2)OCO3)CCC1CN1CCOCC1 (stereo not given) | 3.12 (≈ 9.91 µM) | 3.12 (≈ 9.91 µM) |  | > 200 | 1.56 (≈ 4.95 µM) |  | 6.25 (≈ 19.8 µM) | 6.25 (≈ 19.8 µM) |  | inactive |  | 
25 | O[C@@H]1/C(=C/c2ccccc2)CC[C@H]1CN1CCCCC1 (relative stereo) | > 200 | 50 (≈ 184 µM) |  | > 200 | 100 (≈ 368 µM) |  | > 200 | 50 (≈ 184 µM) |  |  |  | 
26 | O=C1/C(=C/c2ccccc2)CCC1CN1CCOCC1 (stereo not given) | 6.25 (≈ 23 µM) | 0.8 (≈ 2.95 µM) |  | 50 (≈ 184 µM) | 3.12 (≈ 11.5 µM) |  | 3.12 (≈ 11.5 µM) | 3.12 (≈ 11.5 µM) |  |  |  | 
27 | COc1ccc(/C=C2\CCCC(CN3CCOCC3)C2=O)cc1OC (stereo not given) | 100 (≈ 289 µM) | 25 (≈ 72.4 µM) |  | > 200 | 25 (≈ 72.4 µM) |  | 50 (≈ 145 µM) | 50 (≈ 145 µM) |  |  |  | 
